Assay results taken from ChEMBL document CHEMBL4118241, “Structural basis for the selective inhibition of activated thrombin-activatable fibrinolysis inhibitor (TAFIa) by a selenium-containing inhibitor with chloro-aminopyridine as a basic group” (Bioorg Med Chem Lett, 2018).

Assays:
Carboxypeptidase B [1] = molecular target: T1, Carboxypeptidase B (Sus scrofa, UniProt P09955); assay: Inhibition of porcine pancreas carboxypeptidase B after 10 mins in absence of DTT
T1 sequence (P09955 whole entry): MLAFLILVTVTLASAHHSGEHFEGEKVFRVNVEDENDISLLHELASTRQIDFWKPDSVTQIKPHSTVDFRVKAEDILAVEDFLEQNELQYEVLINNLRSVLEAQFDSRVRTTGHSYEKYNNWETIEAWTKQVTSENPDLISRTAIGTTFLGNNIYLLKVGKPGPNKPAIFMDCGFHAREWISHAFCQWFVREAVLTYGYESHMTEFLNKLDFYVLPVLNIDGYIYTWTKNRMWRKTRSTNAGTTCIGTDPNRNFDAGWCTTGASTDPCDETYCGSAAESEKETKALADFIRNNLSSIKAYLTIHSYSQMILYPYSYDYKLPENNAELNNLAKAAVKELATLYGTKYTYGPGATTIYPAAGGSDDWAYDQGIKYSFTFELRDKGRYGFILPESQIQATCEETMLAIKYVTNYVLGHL

[2] = molecular target: T2, Carboxypeptidase N catalytic chain (Homo sapiens, UniProt P15169); assay: Inhibition of human carboxypeptidase N preincubated for 10 mins followed by hippuryl-lysine substrate addition measured after 30 mins in absence of DTT
T2 sequence (P15169 whole entry): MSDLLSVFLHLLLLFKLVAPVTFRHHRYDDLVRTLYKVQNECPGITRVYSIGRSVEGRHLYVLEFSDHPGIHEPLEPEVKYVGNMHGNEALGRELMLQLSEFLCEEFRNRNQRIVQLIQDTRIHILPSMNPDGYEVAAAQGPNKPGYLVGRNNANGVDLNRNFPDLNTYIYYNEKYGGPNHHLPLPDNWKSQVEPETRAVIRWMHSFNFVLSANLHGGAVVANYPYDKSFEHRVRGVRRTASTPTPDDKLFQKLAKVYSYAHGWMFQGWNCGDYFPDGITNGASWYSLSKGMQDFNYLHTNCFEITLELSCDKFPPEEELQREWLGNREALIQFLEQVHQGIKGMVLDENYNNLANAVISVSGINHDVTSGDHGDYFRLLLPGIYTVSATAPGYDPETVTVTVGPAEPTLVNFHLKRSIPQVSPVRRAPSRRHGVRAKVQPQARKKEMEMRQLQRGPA

Carboxypeptidase B [3] = molecular target: T1, Carboxypeptidase B; assay: Inhibition of porcine pancreas carboxypeptidase B after 10 mins in presence of DTT
Carboxypeptidase B2 [4] = molecular target: T3, Carboxypeptidase B2 (Homo sapiens, UniProt Q96IY4); assay: Inhibition of human plasma activated thrombin-activatable fibrinolysis inhibitor after 10 mins in presence of DTT
T3 sequence (Q96IY4 whole entry): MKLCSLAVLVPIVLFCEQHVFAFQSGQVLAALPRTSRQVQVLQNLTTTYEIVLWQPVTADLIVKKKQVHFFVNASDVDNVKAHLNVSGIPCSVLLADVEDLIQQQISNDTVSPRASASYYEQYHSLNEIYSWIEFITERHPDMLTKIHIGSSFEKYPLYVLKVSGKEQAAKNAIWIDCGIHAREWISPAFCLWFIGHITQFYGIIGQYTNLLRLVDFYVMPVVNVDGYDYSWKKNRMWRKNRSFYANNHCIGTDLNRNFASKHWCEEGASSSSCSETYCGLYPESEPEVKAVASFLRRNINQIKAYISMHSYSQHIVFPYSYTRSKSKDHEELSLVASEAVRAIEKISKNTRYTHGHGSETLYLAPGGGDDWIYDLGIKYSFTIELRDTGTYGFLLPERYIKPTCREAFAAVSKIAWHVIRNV

Homo sapiens = species on record: Homo sapiens; assay: Selectivity ratio of IC50 for human carboxypeptidase N to IC50 for human plasma activated thrombin-activatable fibrinolysis inhibitor
[5] = molecular target: T2, Carboxypeptidase N catalytic chain; assay: Inhibition of human carboxypeptidase N preincubated for 10 mins followed by hippuryl-lysine substrate addition measured after 30 mins in presence of DTT
Carboxypeptidase B2 [6] = molecular target: T3, Carboxypeptidase B2; assay: Inhibition of human plasma activated thrombin-activatable fibrinolysis inhibitor after 10 mins in absence of DTT

With `CCC(=O)[Se]CC(Cc1cnc(N)c(Cl)c1)C(=O)O` (racemic) the IC50 (Carboxypeptidase B [1]) was 2500 nM, the IC50 [2] was > 380000 nM and the IC50 (Carboxypeptidase B [3]) was 29 nM. The IC50 (Carboxypeptidase B2 [4]) was 1.5 nM, the Ratio IC50 (Homo sapiens) was > 250000 and the IC50 [5] was > 380000 nM. For the same molecule, the IC50 (Carboxypeptidase B2 [6]) was 370000 nM.
